Measurements from US20150297606A1, “Tricyclic Lactams for Use in the Protection of Hematopoietic Stem and Progenitor Cells Against Ionizing Radiation” (G1 THERAPEUTICS, INC., priority 2014, published 2015).

Key:
[1] = molecular target: CDK5/p35 (Homo sapiens, UniProt Q00535); experiment: CDK5/p35 kinase assay (Nanosyn, Caliper microfluidic); assay type: biochemical; conditions: 12-point dose-response, ATP 20 μM (Km), 3 hr; read-out: Inhibition of CDK kinases: Cdk5/p35
Method: (§1) Selected compounds disclosed herein were tested in CDK4/cyclinD1, CDK6/CycD3, CDK2/CycA, CDK2/cyclinE, CDK5/p25, CDK5/p35, CDK7/CycH/MAT1, and CDK9/CycT kinase assays by Nanosyn (Santa Clara, Calif.) to determine their inhibitory effect on these CDKs. The assays were performed using microfluidic kinase detection technology (Caliper Assay Platform). The compounds were tested in 12-point dose-response format in singlicate at Km for ATP. Phosphoacceptor substrate peptide concentration used was 1.25 μM for all assays (except […] was used for the CKD7/CycH/MAT1 assay and Staurosporine was used as the reference compound for all assays. Specifics of each assay are as described below:
CDK5/p35: Enzyme concentration: 0.07 nM; ATP concentration: 20 μM; Incubation time: 3 hr.

[2] = molecular target: CDK5/p25 (Homo sapiens, UniProt Q00535); experiment: CDK5/p25 kinase assay (Nanosyn, Caliper microfluidic); assay type: biochemical; conditions: 12-point dose-response, ATP 20 μM (Km), 3 hr; read-out: Inhibition of CDK kinases: Cdk5/p25
Chain of CDK5/p25 (Q00535 whole entry, species assumed): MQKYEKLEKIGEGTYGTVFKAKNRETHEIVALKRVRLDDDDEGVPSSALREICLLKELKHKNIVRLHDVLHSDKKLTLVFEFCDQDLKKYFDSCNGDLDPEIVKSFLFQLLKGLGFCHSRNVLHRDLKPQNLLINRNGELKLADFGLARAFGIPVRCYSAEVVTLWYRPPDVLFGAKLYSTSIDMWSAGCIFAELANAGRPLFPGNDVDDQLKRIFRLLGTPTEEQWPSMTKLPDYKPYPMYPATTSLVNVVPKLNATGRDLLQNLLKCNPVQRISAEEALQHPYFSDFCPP
Chain of CDK5/p25 (Q15078 99-307 partner limits assumed, species assumed): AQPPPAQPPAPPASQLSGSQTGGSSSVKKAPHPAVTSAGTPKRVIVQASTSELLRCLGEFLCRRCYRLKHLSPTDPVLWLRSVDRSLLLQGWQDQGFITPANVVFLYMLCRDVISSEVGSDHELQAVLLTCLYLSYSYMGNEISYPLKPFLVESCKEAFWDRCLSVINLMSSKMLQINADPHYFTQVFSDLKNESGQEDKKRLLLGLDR
Method: as §1
CDK5/p25: Enzyme concentration: 0.1 nM; ATP concentration: 20 μM; Incubation time: 3 hr.

[3] = molecular target: CDK4/CyclinD1 (Homo sapiens, UniProt P11802); experiment: CDK4/cyclinD1 kinase assay (Nanosyn, Caliper microfluidic); assay type: biochemical; conditions: 12-point dose-response, ATP 200 μM (Km), 3 hr; read-out: Inhibition of CDK kinases: Cdk4/CycD1
Chain of CDK4/CyclinD1 (P11802 whole entry, species assumed): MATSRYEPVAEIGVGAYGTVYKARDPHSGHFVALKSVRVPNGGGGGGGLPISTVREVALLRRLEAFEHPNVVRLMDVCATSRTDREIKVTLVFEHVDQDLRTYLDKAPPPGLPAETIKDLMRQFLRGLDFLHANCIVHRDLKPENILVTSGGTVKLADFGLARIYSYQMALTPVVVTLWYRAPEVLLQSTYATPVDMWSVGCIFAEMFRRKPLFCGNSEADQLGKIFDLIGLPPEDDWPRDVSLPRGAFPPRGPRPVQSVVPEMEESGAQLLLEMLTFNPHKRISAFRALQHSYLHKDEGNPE
Chain of CDK4/CyclinD1 (P24385 whole entry partner, species assumed): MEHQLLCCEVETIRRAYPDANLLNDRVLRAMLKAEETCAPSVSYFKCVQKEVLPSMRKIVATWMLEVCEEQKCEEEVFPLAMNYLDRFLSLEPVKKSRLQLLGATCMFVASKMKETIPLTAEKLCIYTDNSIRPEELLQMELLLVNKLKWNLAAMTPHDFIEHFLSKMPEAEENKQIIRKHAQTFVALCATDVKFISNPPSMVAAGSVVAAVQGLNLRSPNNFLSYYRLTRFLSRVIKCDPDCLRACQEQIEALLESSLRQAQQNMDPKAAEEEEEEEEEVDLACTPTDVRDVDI
Method: as §1
CDK4/CyclinD1: Enzyme concentration: 1 nM; ATP concentration: 200 μM; Incubation time: 3 hr.

[4] = molecular target: CDK2/CyclinA (Homo sapiens, UniProt P24941); experiment: CDK2/CycA kinase assay (Nanosyn, Caliper microfluidic); assay type: biochemical; conditions: 12-point dose-response, ATP 50 μM (Km), 3 hr; read-out: Inhibition of CDK kinases: Cdk2/CycA
Method: as §1
CDK2/CyclinA: Enzyme concentration: 0.2 nM; ATP concentration: 50 μM; Incubation time: 3 hr.

[5] = molecular target: CDK9/CycT (Homo sapiens, UniProt P50750); experiment: CDK9/CycT kinase assay (Nanosyn, Caliper microfluidic); assay type: biochemical; conditions: read-out: Inhibition of CDK kinases: Cdk9/Cyc T
Chain of CDK9/CycT (P50750 whole entry, species assumed): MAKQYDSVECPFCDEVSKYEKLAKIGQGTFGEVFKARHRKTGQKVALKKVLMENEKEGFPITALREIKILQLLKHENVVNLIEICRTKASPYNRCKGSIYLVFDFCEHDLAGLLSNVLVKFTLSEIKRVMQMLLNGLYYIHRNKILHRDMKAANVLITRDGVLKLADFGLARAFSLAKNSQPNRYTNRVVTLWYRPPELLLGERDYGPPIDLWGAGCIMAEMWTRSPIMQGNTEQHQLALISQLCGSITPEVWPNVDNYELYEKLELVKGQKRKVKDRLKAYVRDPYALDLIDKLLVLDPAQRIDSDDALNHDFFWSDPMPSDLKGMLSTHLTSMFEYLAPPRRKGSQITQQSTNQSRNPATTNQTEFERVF
Chain of CDK9/CycT (O60563 whole entry partner, species assumed): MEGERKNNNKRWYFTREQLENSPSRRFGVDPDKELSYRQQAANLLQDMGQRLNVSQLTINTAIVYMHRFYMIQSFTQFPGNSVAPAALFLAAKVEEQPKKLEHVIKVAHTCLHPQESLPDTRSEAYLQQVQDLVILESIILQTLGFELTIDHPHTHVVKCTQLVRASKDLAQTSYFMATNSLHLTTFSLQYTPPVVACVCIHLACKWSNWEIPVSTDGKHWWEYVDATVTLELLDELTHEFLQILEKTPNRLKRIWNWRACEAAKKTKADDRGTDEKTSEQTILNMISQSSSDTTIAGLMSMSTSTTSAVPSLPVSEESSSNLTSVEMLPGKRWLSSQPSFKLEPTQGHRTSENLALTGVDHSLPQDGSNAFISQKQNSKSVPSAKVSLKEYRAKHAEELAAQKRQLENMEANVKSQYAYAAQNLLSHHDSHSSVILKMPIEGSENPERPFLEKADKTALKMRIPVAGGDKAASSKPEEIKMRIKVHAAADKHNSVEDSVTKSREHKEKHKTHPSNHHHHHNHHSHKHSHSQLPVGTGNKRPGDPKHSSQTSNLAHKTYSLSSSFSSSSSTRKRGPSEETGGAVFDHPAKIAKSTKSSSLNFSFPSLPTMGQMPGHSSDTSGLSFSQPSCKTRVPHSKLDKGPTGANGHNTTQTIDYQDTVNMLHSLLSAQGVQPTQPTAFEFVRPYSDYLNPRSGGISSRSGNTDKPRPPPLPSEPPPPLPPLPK
Method: as §1
CDK9/CycT: Enzyme concentration: 5 nM; ATP concentration: 10 μM; Incubation time: 17 hr.

[6] = molecular target: CDK6/CyclinD3 (Homo sapiens, UniProt Q00534); experiment: CDK6/CycD3 kinase assay (Nanosyn, Caliper microfluidic); assay type: biochemical; conditions: 12-point dose-response, ATP 300 μM (Km), 3 hr; read-out: Inhibition of CDK kinases: Cdk6/CycD3
Chain of CDK6/CyclinD3 (Q00534 whole entry, species assumed): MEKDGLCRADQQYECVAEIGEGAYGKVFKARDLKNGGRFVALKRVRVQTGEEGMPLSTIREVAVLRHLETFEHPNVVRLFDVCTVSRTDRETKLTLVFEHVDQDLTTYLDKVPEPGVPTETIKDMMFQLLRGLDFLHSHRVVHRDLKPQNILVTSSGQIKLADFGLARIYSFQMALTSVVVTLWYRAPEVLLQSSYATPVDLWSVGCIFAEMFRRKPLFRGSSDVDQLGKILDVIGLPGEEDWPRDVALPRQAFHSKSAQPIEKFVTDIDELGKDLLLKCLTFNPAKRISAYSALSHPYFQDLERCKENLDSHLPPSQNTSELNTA
Chain of CDK6/CyclinD3 (P30281 whole entry partner, species assumed): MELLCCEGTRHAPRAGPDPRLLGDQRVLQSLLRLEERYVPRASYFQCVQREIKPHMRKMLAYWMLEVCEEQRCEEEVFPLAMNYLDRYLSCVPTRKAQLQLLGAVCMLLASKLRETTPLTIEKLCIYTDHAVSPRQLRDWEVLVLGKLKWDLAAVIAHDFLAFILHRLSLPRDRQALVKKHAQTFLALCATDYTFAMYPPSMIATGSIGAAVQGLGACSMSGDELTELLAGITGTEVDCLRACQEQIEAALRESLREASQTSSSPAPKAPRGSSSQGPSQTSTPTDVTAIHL
Method: as §1
CDK6/CyclinD3: Enzyme concentration: 10 nM; ATP concentration: 300 μM; Incubation time: 3 hr.

[7] = molecular target: CDK2/CyclinE (Homo sapiens, UniProt P24941); experiment: CDK2/cyclinE kinase assay (Nanosyn, Caliper microfluidic); assay type: biochemical; conditions: read-out: Inhibition of CDK kinases: Cdk2/CycE
Method: as §1
CDK2/CyclinE: Enzyme concentration: 0.2 nM; ATP concentration: 100 μM; Incubation time: 3 hr.

[8] = molecular target: CDK7/CycH/MAT1 (Homo sapiens, UniProt P50613); experiment: CDK7/CycH/MAT1 kinase assay (Nanosyn, Caliper microfluidic); assay type: biochemical; conditions: 12-point dose-response, ATP 50 μM (Km), 3 hr; read-out: Inhibition of CDK kinases: Cdk7/CycH/MAT1
Chain of CDK7/CycH/MAT1 (P50613 whole entry, species assumed): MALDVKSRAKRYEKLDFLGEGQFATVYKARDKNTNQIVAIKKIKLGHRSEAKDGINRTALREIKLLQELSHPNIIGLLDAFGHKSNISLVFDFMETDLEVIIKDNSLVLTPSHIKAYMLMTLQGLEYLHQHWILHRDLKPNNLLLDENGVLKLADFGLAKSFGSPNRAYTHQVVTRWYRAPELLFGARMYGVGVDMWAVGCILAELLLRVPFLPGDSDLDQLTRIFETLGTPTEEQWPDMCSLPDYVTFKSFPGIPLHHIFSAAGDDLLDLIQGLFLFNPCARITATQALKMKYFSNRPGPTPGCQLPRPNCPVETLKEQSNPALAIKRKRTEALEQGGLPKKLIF
Chain of CDK7/CycH/MAT1 (P51946 whole entry partner, species assumed): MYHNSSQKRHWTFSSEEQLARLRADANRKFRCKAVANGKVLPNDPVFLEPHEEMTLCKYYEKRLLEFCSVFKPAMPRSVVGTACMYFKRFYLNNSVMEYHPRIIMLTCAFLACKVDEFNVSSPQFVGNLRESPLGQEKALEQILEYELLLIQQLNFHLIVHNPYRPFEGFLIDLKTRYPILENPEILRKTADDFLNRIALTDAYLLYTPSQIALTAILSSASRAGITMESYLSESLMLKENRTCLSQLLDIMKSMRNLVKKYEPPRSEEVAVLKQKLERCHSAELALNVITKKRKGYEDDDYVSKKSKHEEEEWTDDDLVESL
Chain of CDK7/CycH/MAT1 (P51948 whole entry partner, species assumed): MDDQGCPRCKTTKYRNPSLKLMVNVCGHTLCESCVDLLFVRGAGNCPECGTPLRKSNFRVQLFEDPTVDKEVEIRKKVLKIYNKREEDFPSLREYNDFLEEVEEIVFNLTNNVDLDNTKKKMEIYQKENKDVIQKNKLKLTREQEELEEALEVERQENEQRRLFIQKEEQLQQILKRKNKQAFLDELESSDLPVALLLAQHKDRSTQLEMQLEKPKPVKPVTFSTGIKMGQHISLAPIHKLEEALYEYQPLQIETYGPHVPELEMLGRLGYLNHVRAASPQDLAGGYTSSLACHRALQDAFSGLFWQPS
Method: as §1
CDK7/CycH/MAT1: Enzyme concentration: 5 nM; ATP concentration: 50 μM; Incubation time: 3 hr.

[9] = test system: CDK4/6-dependent cell lines; conditions: cited from earlier work
[10] = Grade 3/4 neutropenia and leukopenia, clinical trial; cited from earlier work

Chain of CDK5/p35 (Q00535 whole entry, species assumed): as the sequence (Q00535 whole entry, species assumed) above
Chain of CDK5/p35 (Q15078 whole entry partner, species assumed): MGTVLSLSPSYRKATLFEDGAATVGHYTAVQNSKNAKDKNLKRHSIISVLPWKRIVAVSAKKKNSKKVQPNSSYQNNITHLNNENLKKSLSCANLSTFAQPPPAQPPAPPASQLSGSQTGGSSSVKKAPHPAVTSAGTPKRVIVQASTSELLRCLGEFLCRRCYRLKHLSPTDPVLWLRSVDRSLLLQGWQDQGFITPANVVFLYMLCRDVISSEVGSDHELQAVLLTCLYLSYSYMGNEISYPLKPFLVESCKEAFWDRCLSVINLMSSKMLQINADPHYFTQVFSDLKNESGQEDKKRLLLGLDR

In the case of `CN1CCN(c2ccc(Nc3ncc4c(n3)N3C(CC4)C(=O)NCC3(C)C)nc2)CC1` (centres unmarked) [ZZZ], the IC50 [1] is reported as > 100 µM, the IC50 [2] is reported as > 100 µM and the IC50 [3] is reported as > 100 µM. For the same molecule, the IC50 [4] was > 100 µM, the IC50 [5] was > 100 µM and the IC50 [6] was > 100 µM. The IC50 [7] was > 100 µM.
In the case of `CN1CCN(c2ccc(Nc3ncc4c(n3)N3CCNC(=O)C3CC4=O)nc2)CC1` (centres unmarked) [GGGG], the IC50 [1] is reported as > 100 µM, the IC50 [2] is reported as > 100 µM and the IC50 [3] is reported as 10 to 100 µM. For the same molecule, the IC50 [4] was > 100 µM, the IC50 [5] was > 100 µM and the IC50 [6] was 10 to 100 µM. The IC50 [7] was > 100 µM and the IC50 [8] was > 100 µM.
With `CN1CCN(c2ccc(Nc3ncc4c(n3)N3C(CC4=O)C(=O)NCC34CCCC4)nc2)CC1` (centres unmarked) [CCCC] the IC50 [1] was > 100 µM, the IC50 [2] was > 100 µM and the IC50 [3] was > 100 µM. The IC50 [4] was > 100 µM, the IC50 [5] was > 100 µM and the IC50 [6] was > 100 µM. For the same molecule, the IC50 [7] was > 100 µM and the IC50 [8] was > 100 µM.
In the case of `CC(=O)c1c(C)c2cnc(Nc3ccc(N4CCNCC4)cn3)nc2n(C2CCCC2)c1=O` [PD0332991, 6-acetyl-8-cyclopentyl-5-methyl-2-(5-piperazin-1-yl-pyridin-2-ylammino)-8H-pyrido-[2,3-d]-pyrimidin-7-one], the IR protective characteristics [9] is given as “exhibited IR protective characteristics”, the “patients requiring a dose interruption” value [10] is given as 71% and the “patients requiring a dose reduction” value [10] is given as 35%.
In the case of `CN1CCN(c2ccc(Nc3ncc4c(n3)N3C(CC4)C(=O)NCC34CCCCC4)nc2)CC1` (centres unmarked) [BBBB], the IC50 [1] is reported as > 100 µM, the IC50 [2] is reported as > 100 µM and the IC50 [3] is reported as 10 to 100 µM. The IC50 [4] was 10 to 100 µM, the IC50 [5] was > 100 µM and the IC50 [6] was 10 to 100 µM. For the same molecule, the IC50 [7] was > 100 µM and the IC50 [8] was > 100 µM.
In the case of `O=C1NC(=O)c2c1c1c3ccccc3[nH]c1c1[nH]c3cc(Br)ccc3c21` [Compound 2BrIC, 2-bromo-12,13-dihydro-5H-indolo[2,3-a]pyrrolo[3,4]carbazole-5,6-dione], the IR protective characteristics [9] is listed as “exhibited IR protective characteristics”.
For `CN1CCN(c2ccc(Nc3ncc4c(n3)N3C(CC4=O)C(=O)NCC3(C)C)nc2)CC1` (centres unmarked) [YYY], the IC50 [1] was > 100 µM, the IC50 [2] was > 100 µM and the IC50 [3] was < 10 µM. For the same molecule, the IC50 [4] was > 100 µM, the IC50 [5] was > 100 µM and the IC50 [6] was 10 to 100 µM. The IC50 [7] was > 100 µM.
For `CN1CCN(c2ccc(Nc3ncc4c(n3)N3C(CC4=O)C(=O)NCC34CCCCC4)nc2)CC1` (centres unmarked) [AAAA], the IC50 [1] was > 100 µM, the IC50 [2] was > 100 µM and the IC50 [3] was > 100 µM. The IC50 [4] was > 100 µM, the IC50 [5] was > 100 µM and the IC50 [6] was > 100 µM. The IC50 [7] was > 100 µM and the IC50 [8] was > 100 µM.
